# Data as given in patent publication US9340590B2 (priority 2011, dated 2016).
# What was measured:
# Assay in all cases: cell-based
# hNav1.7 = hNav1.7 (Homo sapiens, UniProt Q15858); type: cell-based; conditions: IonWorks Quattro, use-dependent block, hNav1.7; read-out: IWQ Use Nav1.7
# hNav1.5 = hNav1.5 (Homo sapiens, UniProt Q14524); conditions: IonWorks Quattro, use-dependent block, hNav1.5; read-out: IWQ Use Nav1.5
# hNav1.3 = hNav1.3 (Homo sapiens, UniProt Q9NY46); conditions: IonWorks Quattro, use-dependent block, hNav1.3; read-out: IWQ Use Nav1.3
# Chain of hNav1.3 (Q9NY46 whole entry, looked up): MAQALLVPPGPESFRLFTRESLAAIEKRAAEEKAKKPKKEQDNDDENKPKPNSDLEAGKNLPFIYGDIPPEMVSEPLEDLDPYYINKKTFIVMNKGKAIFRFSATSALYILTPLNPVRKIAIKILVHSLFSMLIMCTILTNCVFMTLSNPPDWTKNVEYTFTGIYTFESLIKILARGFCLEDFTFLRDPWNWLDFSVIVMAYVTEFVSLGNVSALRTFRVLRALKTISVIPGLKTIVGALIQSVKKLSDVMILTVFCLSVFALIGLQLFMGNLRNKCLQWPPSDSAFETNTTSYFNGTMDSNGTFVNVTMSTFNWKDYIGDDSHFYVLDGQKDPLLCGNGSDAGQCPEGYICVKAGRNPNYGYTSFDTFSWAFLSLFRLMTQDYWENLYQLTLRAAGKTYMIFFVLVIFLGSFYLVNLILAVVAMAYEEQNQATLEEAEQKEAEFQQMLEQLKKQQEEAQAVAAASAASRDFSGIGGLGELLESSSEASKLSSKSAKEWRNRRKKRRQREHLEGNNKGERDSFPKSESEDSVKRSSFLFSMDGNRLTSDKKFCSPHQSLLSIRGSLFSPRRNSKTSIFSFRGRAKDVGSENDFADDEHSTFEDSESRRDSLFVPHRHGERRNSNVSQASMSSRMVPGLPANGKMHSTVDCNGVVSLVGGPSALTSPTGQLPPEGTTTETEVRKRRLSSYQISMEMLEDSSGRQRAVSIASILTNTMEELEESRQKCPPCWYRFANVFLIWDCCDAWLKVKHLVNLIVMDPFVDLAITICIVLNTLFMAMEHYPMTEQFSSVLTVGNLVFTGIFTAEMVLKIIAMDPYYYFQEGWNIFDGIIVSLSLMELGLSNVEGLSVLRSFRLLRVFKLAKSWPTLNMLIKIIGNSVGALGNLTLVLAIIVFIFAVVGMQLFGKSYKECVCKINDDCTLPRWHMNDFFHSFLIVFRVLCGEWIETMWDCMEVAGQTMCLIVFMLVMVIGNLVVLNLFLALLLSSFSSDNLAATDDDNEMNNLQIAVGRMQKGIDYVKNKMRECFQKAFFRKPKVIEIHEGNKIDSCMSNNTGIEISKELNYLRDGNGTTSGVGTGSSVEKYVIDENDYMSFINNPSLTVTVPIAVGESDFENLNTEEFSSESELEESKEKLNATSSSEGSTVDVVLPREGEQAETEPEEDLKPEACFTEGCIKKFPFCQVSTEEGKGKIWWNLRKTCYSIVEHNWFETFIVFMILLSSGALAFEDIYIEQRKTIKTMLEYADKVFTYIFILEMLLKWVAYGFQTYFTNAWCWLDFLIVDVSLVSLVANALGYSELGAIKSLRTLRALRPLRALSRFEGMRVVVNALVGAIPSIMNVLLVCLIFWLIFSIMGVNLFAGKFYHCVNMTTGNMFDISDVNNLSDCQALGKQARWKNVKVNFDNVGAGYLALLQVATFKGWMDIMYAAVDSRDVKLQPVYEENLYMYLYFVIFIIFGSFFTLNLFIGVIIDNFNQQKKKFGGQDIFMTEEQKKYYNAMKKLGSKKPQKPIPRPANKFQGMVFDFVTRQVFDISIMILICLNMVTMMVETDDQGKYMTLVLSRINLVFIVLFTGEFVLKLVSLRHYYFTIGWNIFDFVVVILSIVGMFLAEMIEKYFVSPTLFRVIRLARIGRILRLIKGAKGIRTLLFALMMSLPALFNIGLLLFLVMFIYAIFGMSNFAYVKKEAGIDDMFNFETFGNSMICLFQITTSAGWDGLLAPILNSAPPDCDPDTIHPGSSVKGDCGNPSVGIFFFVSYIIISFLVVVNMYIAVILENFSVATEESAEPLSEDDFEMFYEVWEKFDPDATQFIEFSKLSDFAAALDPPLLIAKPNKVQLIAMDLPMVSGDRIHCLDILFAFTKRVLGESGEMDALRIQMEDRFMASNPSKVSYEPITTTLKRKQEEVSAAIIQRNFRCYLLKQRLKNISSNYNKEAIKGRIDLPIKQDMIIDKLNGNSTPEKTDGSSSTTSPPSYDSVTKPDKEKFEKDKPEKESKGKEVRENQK
# Chain of hNav1.7 (Q15858 whole entry, looked up): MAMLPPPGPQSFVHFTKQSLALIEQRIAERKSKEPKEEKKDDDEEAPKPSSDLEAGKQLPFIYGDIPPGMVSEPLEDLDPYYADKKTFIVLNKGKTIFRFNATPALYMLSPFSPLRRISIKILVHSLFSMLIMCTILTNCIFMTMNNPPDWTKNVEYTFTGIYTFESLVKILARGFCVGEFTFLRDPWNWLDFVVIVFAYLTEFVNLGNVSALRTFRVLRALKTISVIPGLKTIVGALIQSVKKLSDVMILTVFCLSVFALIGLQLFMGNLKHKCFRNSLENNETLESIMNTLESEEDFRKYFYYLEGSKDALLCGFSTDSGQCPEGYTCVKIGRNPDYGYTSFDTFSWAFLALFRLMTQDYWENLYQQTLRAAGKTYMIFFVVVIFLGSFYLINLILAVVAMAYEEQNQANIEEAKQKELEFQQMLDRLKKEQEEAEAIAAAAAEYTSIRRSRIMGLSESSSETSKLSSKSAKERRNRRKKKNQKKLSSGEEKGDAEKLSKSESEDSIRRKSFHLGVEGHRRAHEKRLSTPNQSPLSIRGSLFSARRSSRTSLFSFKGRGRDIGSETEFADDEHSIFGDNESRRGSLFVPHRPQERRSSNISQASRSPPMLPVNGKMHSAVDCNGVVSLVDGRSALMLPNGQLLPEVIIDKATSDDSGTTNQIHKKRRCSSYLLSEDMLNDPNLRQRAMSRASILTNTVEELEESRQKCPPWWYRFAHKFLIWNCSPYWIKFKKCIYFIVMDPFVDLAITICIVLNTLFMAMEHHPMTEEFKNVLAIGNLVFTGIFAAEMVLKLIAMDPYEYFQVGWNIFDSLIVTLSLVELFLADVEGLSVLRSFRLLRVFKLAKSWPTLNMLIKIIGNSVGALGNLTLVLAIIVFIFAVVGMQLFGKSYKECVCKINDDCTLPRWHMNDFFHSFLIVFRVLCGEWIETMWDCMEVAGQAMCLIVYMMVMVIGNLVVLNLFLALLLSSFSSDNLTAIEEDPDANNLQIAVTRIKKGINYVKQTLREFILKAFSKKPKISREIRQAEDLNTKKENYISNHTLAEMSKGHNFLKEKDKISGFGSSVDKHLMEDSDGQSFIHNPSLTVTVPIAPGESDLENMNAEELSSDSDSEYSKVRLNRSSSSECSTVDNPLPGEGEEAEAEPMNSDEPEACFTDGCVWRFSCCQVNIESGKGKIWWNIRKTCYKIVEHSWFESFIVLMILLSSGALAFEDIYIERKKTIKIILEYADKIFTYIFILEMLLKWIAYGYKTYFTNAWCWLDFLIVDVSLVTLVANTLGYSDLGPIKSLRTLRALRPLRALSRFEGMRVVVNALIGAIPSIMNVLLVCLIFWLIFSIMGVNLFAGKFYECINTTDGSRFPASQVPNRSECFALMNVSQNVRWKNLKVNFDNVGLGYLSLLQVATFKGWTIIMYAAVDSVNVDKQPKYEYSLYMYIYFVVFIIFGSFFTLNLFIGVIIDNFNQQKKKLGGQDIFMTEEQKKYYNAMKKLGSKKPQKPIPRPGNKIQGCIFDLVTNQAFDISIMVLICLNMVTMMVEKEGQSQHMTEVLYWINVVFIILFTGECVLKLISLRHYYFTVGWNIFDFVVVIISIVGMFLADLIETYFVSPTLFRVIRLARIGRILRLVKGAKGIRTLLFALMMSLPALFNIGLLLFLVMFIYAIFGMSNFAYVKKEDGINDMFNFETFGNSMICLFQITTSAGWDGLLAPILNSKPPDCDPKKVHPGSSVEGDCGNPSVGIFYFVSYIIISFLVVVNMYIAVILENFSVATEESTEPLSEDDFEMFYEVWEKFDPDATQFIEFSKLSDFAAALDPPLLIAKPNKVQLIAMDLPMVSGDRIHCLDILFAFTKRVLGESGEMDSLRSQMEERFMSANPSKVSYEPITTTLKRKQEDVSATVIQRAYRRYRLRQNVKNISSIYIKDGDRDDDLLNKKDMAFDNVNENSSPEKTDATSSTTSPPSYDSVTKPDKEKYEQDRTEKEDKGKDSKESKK
SMILES,IC50 (hNav1.7) [µM],IC50 (hNav1.5) [µM],IC50 (hNav1.3) [nM]
CC[C@H](C)[C@@H]1NC(=O)[C@@H]2CSSC[C@@H]3NC(=O)[C@H](C(C)C)NC(=O)[C@H](CC(C)C)NC(=O)[C@H](CC(N)=O)NC(=O)[C@@H]4CCCN4C(=O)[C@H](CCCNC(=N)N)NC(=O)[C@H](CSSC[C@H](NC(=O)[C@@H](N)CC(=O)O)C(=O)N[C@@H](CC(C)C)C(=O)NCC(=O)N[C@@H](C)C(=O)N[C@@H](Cc4ccccc4)C(=O)N[C@@H](CCCNC(=N)N)C(=O)N[C@@H](CCCCN)C(=O)N2)NC(=O)[C@H](CSSC[C@@H](C(=O)N[C@@H](CCCCN)C(=O)N[C@@H](Cc2ccc(O)cc2)C(=O)N[C@H](C(=O)N[C@@H](Cc2ccccc2)C(=O)O)C(C)C)NC(=O)[C@H](Cc2c[nH]c4ccccc24)NC(=O)[C@H](CCCNC(=N)N)NC(=O)[C@H](Cc2c[nH]cn2)NC(=O)[C@H]([C@@H](C)O)NC(=O)[C@H](CCCNC(=N)N)NC(=O)[C@H](CO)NC3=O)NC(=O)[C@H](CCCCN)NC(=O)[C@H](CC(=O)O)NC(=O)[C@H](CCC(=O)O)NC(=O)[C@H](CC(=O)O)NC(=O)[C@@H]2CCCN2C1=O [compound 838],> 5,> 5,1900
CC[C@H](C)[C@@H]1NC(=O)[C@@H]2CSSC[C@@H]3NC(=O)[C@H](C(C)C)NC(=O)[C@H](CC(C)C)NC(=O)[C@H](CC(N)=O)NC(=O)[C@@H]4CCCN4C(=O)[C@H](CCCNC(=N)N)NC(=O)[C@H](CSSC[C@H](NC(=O)[C@@H](N)CC(=O)O)C(=O)N[C@@H](CC(C)C)C(=O)NCC(=O)N[C@@H](C)C(=O)N[C@@H](Cc4ccccc4)C(=O)N[C@@H](CCCNC(=N)N)C(=O)N[C@@H](CCCCN)C(=O)N2)NC(=O)[C@H](CSSC[C@@H](C(=O)N[C@@H](CCCCN)C(=O)N[C@@H](Cc2ccc(O)cc2)C(=O)N[C@H](C(=O)N[C@@H](Cc2ccccc2)C(=O)O)C(C)C)NC(=O)[C@H](Cc2c[nH]c4ccccc24)NC(=O)[C@H](CCCNC(=N)N)NC(=O)[C@H](Cc2c[nH]cn2)NC(=O)[C@H]([C@@H](C)O)NC(=O)[C@H](CCCNC(=N)N)NC(=O)[C@H](CO)NC3=O)NC(=O)[C@H](CCCCN)NC(=O)[C@H](CC(=O)O)NC(=O)[C@H](Cc2ccccc2)NC(=O)[C@H](CC(=O)O)NC(=O)[C@@H]2CCCN2C1=O [compound 839],> 5,> 5,1200
CC[C@H](C)[C@@H]1NC(=O)[C@@H]2CSSC[C@@H]3NC(=O)[C@H](C(C)C)NC(=O)[C@H](CC(C)C)NC(=O)[C@H](CC(N)=O)NC(=O)[C@@H]4CCCN4C(=O)[C@H](CCCNC(=N)N)NC(=O)[C@H](CSSC[C@H](NC(=O)[C@@H](N)CC(=O)O)C(=O)N[C@@H](CC(C)C)C(=O)NCC(=O)N[C@@H](C)C(=O)N[C@@H](Cc4ccccc4)C(=O)N[C@@H](CCCNC(=N)N)C(=O)N[C@@H](CCCCN)C(=O)N2)NC(=O)[C@H](CSSC[C@@H](C(=O)N[C@@H](CCCCN)C(=O)N[C@@H](Cc2ccc(O)cc2)C(=O)N[C@H](C(=O)N[C@@H](Cc2ccccc2)C(=O)O)C(C)C)NC(=O)[C@H](Cc2c[nH]c4ccccc24)NC(=O)[C@H](CCCNC(=N)N)NC(=O)[C@H](Cc2c[nH]cn2)NC(=O)[C@H]([C@@H](C)O)NC(=O)[C@H](CCCNC(=N)N)NC(=O)[C@H](CO)NC3=O)NC(=O)[C@H](CCCCN)NC(=O)[C@H](CC(=O)O)NC(=O)CNC(=O)[C@H](CC(=O)O)NC(=O)[C@@H]2CCCN2C1=O [compound 840],> 5,> 5,1500
CC[C@H](C)[C@@H]1NC(=O)[C@@H]2CSSC[C@@H]3NC(=O)[C@H](C(C)C)NC(=O)[C@H](CC(C)C)NC(=O)[C@H](CC(N)=O)NC(=O)[C@@H]4CCCN4C(=O)[C@H](CCCNC(=N)N)NC(=O)[C@H](CSSC[C@H](NC(=O)[C@@H](N)CC(=O)O)C(=O)N[C@@H](CC(C)C)C(=O)NCC(=O)N[C@@H](C)C(=O)N[C@@H](Cc4ccccc4)C(=O)N[C@@H](CCCNC(=N)N)C(=O)N[C@@H](CCCCN)C(=O)N2)NC(=O)[C@H](CSSC[C@@H](C(=O)N[C@@H](CCCCN)C(=O)N[C@@H](Cc2ccc(O)cc2)C(=O)N[C@H](C(=O)N[C@@H](Cc2ccccc2)C(=O)O)C(C)C)NC(=O)[C@H](Cc2c[nH]c4ccccc24)NC(=O)[C@H](CCCNC(=N)N)NC(=O)[C@H](Cc2c[nH]cn2)NC(=O)[C@H]([C@@H](C)O)NC(=O)[C@H](CCCNC(=N)N)NC(=O)[C@H](CO)NC3=O)NC(=O)[C@H](CCCCN)NC(=O)[C@H](CC(=O)O)NC(=O)[C@H](Cc2c[nH]cn2)NC(=O)[C@H](CC(=O)O)NC(=O)[C@@H]2CCCN2C1=O [compound 841],> 5,> 5,> 5000
CC[C@H](C)[C@@H]1NC(=O)[C@H](CC(=O)O)NC(=O)[C@@H]2CCCN2C(=O)[C@H]([C@@H](C)CC)NC(=O)[C@@H]2CSSC[C@@H]3NC(=O)[C@H](C(C)C)NC(=O)[C@H](CC(C)C)NC(=O)[C@H](CC(N)=O)NC(=O)[C@@H]4CCCN4C(=O)[C@H](CCCNC(=N)N)NC(=O)[C@H](CSSC[C@H](NC(=O)[C@@H](N)CC(=O)O)C(=O)N[C@@H](CC(C)C)C(=O)NCC(=O)N[C@@H](C)C(=O)N[C@@H](Cc4ccccc4)C(=O)N[C@@H](CCCNC(=N)N)C(=O)N[C@@H](CCCCN)C(=O)N2)NC(=O)[C@H](CSSC[C@@H](C(=O)N[C@@H](CCCCN)C(=O)N[C@@H](Cc2ccc(O)cc2)C(=O)N[C@H](C(=O)N[C@@H](Cc2ccccc2)C(=O)O)C(C)C)NC(=O)[C@H](Cc2c[nH]c4ccccc24)NC(=O)[C@H](CCCNC(=N)N)NC(=O)[C@H](Cc2c[nH]cn2)NC(=O)[C@H]([C@@H](C)O)NC(=O)[C@H](CCCNC(=N)N)NC(=O)[C@H](CO)NC3=O)NC(=O)[C@H](CCCCN)NC(=O)[C@H](CC(=O)O)NC1=O [compound 842],> 5,> 5,3000
CC[C@H](C)[C@@H]1NC(=O)[C@@H]2CSSC[C@@H]3NC(=O)[C@H](C(C)C)NC(=O)[C@H](CC(C)C)NC(=O)[C@H](CC(N)=O)NC(=O)[C@@H]4CCCN4C(=O)[C@H](CCCNC(=N)N)NC(=O)[C@H](CSSC[C@H](NC(=O)[C@@H](N)CC(=O)O)C(=O)N[C@@H](CC(C)C)C(=O)NCC(=O)N[C@@H](C)C(=O)N[C@@H](Cc4ccccc4)C(=O)N[C@@H](CCCNC(=N)N)C(=O)N[C@@H](CCCCN)C(=O)N2)NC(=O)[C@H](CSSC[C@@H](C(=O)N[C@@H](CCCCN)C(=O)N[C@@H](Cc2ccc(O)cc2)C(=O)N[C@H](C(=O)N[C@@H](Cc2ccccc2)C(=O)O)C(C)C)NC(=O)[C@H](Cc2c[nH]c4ccccc24)NC(=O)[C@H](CCCNC(=N)N)NC(=O)[C@H](Cc2c[nH]cn2)NC(=O)[C@H]([C@@H](C)O)NC(=O)[C@H](CCCNC(=N)N)NC(=O)[C@H](CO)NC3=O)NC(=O)[C@H](CCCCN)NC(=O)[C@H](CC(=O)O)NC(=O)[C@H](CCCCN)NC(=O)[C@H](CC(=O)O)NC(=O)[C@@H]2CCCN2C1=O [compound 843],3.6,2.8,300
CC[C@H](C)[C@@H]1NC(=O)[C@@H]2CSSC[C@@H]3NC(=O)[C@H](C(C)C)NC(=O)[C@H](CC(C)C)NC(=O)[C@H](CC(N)=O)NC(=O)[C@@H]4CCCN4C(=O)[C@H](CCCNC(=N)N)NC(=O)[C@H](CSSC[C@H](NC(=O)[C@@H](N)CC(=O)O)C(=O)N[C@@H](CC(C)C)C(=O)NCC(=O)N[C@@H](C)C(=O)N[C@@H](Cc4ccccc4)C(=O)N[C@@H](CCCNC(=N)N)C(=O)N[C@@H](CCCCN)C(=O)N2)NC(=O)[C@H](CSSC[C@@H](C(=O)N[C@@H](CCCCN)C(=O)N[C@@H](Cc2ccc(O)cc2)C(=O)N[C@H](C(=O)N[C@@H](Cc2ccccc2)C(=O)O)C(C)C)NC(=O)[C@H](Cc2c[nH]c4ccccc24)NC(=O)[C@H](CCCNC(=N)N)NC(=O)[C@H](Cc2c[nH]cn2)NC(=O)[C@H]([C@@H](C)O)NC(=O)[C@H](CCCNC(=N)N)NC(=O)[C@H](CO)NC3=O)NC(=O)[C@H](CCCCN)NC(=O)[C@H](CC(=O)O)NC(=O)[C@H](CC(C)C)NC(=O)[C@H](CC(=O)O)NC(=O)[C@@H]2CCCN2C1=O [compound 844],4.5,> 5,4500
CC[C@H](C)[C@@H]1NC(=O)[C@@H]2CSSC[C@@H]3NC(=O)[C@H](C(C)C)NC(=O)[C@H](CC(C)C)NC(=O)[C@H](CC(N)=O)NC(=O)[C@@H]4CCCN4C(=O)[C@H](CCCNC(=N)N)NC(=O)[C@H](CSSC[C@H](NC(=O)[C@@H](N)CC(=O)O)C(=O)N[C@@H](CC(C)C)C(=O)NCC(=O)N[C@@H](C)C(=O)N[C@@H](Cc4ccccc4)C(=O)N[C@@H](CCCNC(=N)N)C(=O)N[C@@H](CCCCN)C(=O)N2)NC(=O)[C@H](CSSC[C@@H](C(=O)N[C@@H](CCCCN)C(=O)N[C@@H](Cc2ccc(O)cc2)C(=O)N[C@H](C(=O)N[C@@H](Cc2ccccc2)C(=O)O)C(C)C)NC(=O)[C@H](Cc2c[nH]c4ccccc24)NC(=O)[C@H](CCCNC(=N)N)NC(=O)[C@H](Cc2c[nH]cn2)NC(=O)[C@H]([C@@H](C)O)NC(=O)[C@H](CCCNC(=N)N)NC(=O)[C@H](CO)NC3=O)NC(=O)[C@H](CCCCN)NC(=O)[C@H](CC(=O)O)NC(=O)[C@H](CCSC)NC(=O)[C@H](CC(=O)O)NC(=O)[C@@H]2CCCN2C1=O [compound 845],4.7,> 5,800
CC[C@H](C)[C@@H]1NC(=O)[C@@H]2CSSC[C@@H]3NC(=O)[C@H](C(C)C)NC(=O)[C@H](CC(C)C)NC(=O)[C@H](CC(N)=O)NC(=O)[C@@H]4CCCN4C(=O)[C@H](CCCNC(=N)N)NC(=O)[C@H](CSSC[C@H](NC(=O)[C@@H](N)CC(=O)O)C(=O)N[C@@H](CC(C)C)C(=O)NCC(=O)N[C@@H](C)C(=O)N[C@@H](Cc4ccccc4)C(=O)N[C@@H](CCCNC(=N)N)C(=O)N[C@@H](CCCCN)C(=O)N2)NC(=O)[C@H](CSSC[C@@H](C(=O)N[C@@H](CCCCN)C(=O)N[C@@H](Cc2ccc(O)cc2)C(=O)N[C@H](C(=O)N[C@@H](Cc2ccccc2)C(=O)O)C(C)C)NC(=O)[C@H](Cc2c[nH]c4ccccc24)NC(=O)[C@H](CCCNC(=N)N)NC(=O)[C@H](Cc2c[nH]cn2)NC(=O)[C@H]([C@@H](C)O)NC(=O)[C@H](CCCNC(=N)N)NC(=O)[C@H](CO)NC3=O)NC(=O)[C@H](CCCCN)NC(=O)[C@H](CC(=O)O)NC(=O)[C@@H]2CCCN2C(=O)[C@H](CC(=O)O)NC(=O)[C@@H]2CCCN2C1=O [compound 846],2.9,> 5,2900
